Experimental data: ChEMBL document CHEMBL4507271, “Data for DCP probe BAY-707” (2021); call rule not given here
Each block holds one molecule with its values, some of them ahead of it.

Experiments:
[1] = target: Alpha-1D adrenergic receptor (Homo sapiens) (UniProt P25100); conditions: Compound concentration 10.0 uM
[2] = target: Beta-2 adrenergic receptor (Homo sapiens) (UniProt P07550); conditions: Compound concentration 10.0 uM
[3] = target: 5-hydroxytryptamine receptor 1E (Homo sapiens) (UniProt P28566); conditions: Compound concentration 10.0 uM
[4] = target: 5-hydroxytryptamine receptor 3A (Homo sapiens) (UniProt P46098); conditions: Compound concentration 10.0 uM
[5] = target: 5-hydroxytryptamine receptor 2B (Homo sapiens) (UniProt P41595); conditions: Compound concentration 10.0 uM
[6] = target: Muscarinic acetylcholine receptor M2 (Homo sapiens) (UniProt P08172); conditions: Compound concentration 10.0 uM
[7] = target: 5-hydroxytryptamine receptor 1B (Homo sapiens) (UniProt P28222); conditions: Compound concentration 10.0 uM
[8] = target: D(1B) dopamine receptor (Homo sapiens) (UniProt P21918); conditions: Compound concentration 10.0 uM
[9] = target: Histamine H2 receptor (Homo sapiens) (UniProt P25021); conditions: Compound concentration 10.0 uM
[10] = target: Alpha-1A adrenergic receptor (Homo sapiens) (UniProt P35348); conditions: Compound concentration 10.0 uM
[11] = target: Delta-type opioid receptor (Homo sapiens) (UniProt P41143); conditions: Compound concentration 10.0 uM
[12] = target: Sigma intracellular receptor 2 (Homo sapiens) (UniProt Q5BJF2); conditions: Compound concentration 10.0 uM
[13] = target: Histamine H1 receptor (Homo sapiens) (UniProt P35367); conditions: Compound concentration 10.0 uM
[14] = target: Histamine H3 receptor (Homo sapiens) (UniProt Q9Y5N1); conditions: Compound concentration 10.0 uM
[15] = target: D(1A) dopamine receptor (Homo sapiens) (UniProt P21728); conditions: Compound concentration 10.0 uM
[16] = target: D(4) dopamine receptor (Homo sapiens) (UniProt P21917); conditions: Compound concentration 10.0 uM
[17] = target: Alpha-1B adrenergic receptor (Homo sapiens) (UniProt P35368); conditions: Compound concentration 10.0 uM
[18] = target: 5-hydroxytryptamine receptor 5A (Homo sapiens) (UniProt P47898); conditions: Compound concentration 10.0 uM
[19] = target: Histamine H4 receptor (Homo sapiens) (UniProt Q9H3N8); conditions: Compound concentration 10.0 uM
[20] = target: Muscarinic acetylcholine receptor M1 (Homo sapiens) (UniProt P11229); conditions: Compound concentration 10.0 uM
[21] = target: 5-hydroxytryptamine receptor 7 (Homo sapiens) (UniProt P34969); conditions: Compound concentration 10.0 uM
Rattus norvegicus = species: Rattus norvegicus; conditions: Compound concentration 10.0 uM
[22] = target: GABA-A receptor; anion channel; assay: GPCRScan assay: inhibition of GABAA/BZP; type: protein-complex assay, Rattus norvegicus; design: radioligand conc. used [nm] 0.6 – 4.0, parental cells brain tissue
[23] = target: Mu-type opioid receptor (Homo sapiens) (UniProt P35372); conditions: Compound concentration 10.0 uM
[24] = target: Sigma non-opioid intracellular receptor 1 (Homo sapiens) (UniProt Q99720); conditions: Compound concentration 10.0 uM
[25] = target: T1, GABA-A receptor; anion channel (Rattus norvegicus) (UniProt O09028+P15431+P18506+P18508+P19969+P20236+P23574+P23576+P28471+P28473+P30191+P62813+P63079+P63138+Q91ZM7+Q9ES14); conditions: Compound concentration 10.0 uM
[26] = target: Alpha-2C adrenergic receptor (Homo sapiens) (UniProt P18825); conditions: Compound concentration 10.0 uM
[27] = target: T1, GABA-A receptor; anion channel (Rattus norvegicus); conditions: Compound concentration 10.0 uM; remark: listed apart in the source
[28] = target: 5-hydroxytryptamine receptor 1A (Homo sapiens, UniProt P08908); assay: GPCRScan assay: inhibition of 5-HT1A; design: radioligand conc. used [nm] 0.5 – 1.0, parental cells stable CHO
[29] = target: 5-hydroxytryptamine receptor 2C (Homo sapiens) (UniProt P28335); conditions: Compound concentration 10.0 uM
[30] = target: Alpha-2A adrenergic receptor (Homo sapiens) (UniProt P08913); conditions: Compound concentration 10.0 uM
[31] = target: 5-hydroxytryptamine receptor 1A (Homo sapiens) (UniProt P08908); conditions: Compound concentration 10.0 uM
[32] = target: Sodium-dependent dopamine transporter (Homo sapiens) (UniProt Q01959); conditions: Compound concentration 10.0 uM
[33] = target: Kappa-type opioid receptor (Homo sapiens) (UniProt P41145); conditions: Compound concentration 10.0 uM
[34] = target: 5-hydroxytryptamine receptor 1D (Homo sapiens) (UniProt P28221); conditions: Compound concentration 10.0 uM
[35] = target: D(3) dopamine receptor (Homo sapiens) (UniProt P35462); conditions: Compound concentration 10.0 uM
[36] = target: 5-hydroxytryptamine receptor 6 (Homo sapiens) (UniProt P50406); conditions: Compound concentration 10.0 uM
[37] = target: Alpha-2B adrenergic receptor (Homo sapiens) (UniProt P18089); conditions: Compound concentration 10.0 uM
[38] = target: Sodium-dependent noradrenaline transporter (Homo sapiens) (UniProt P23975); conditions: Compound concentration 10.0 uM
[39] = target: 5-hydroxytryptamine receptor 2A (Homo sapiens) (UniProt P28223); conditions: Compound concentration 10.0 uM
[40] = target: D(2) dopamine receptor (Homo sapiens) (UniProt P14416); conditions: Compound concentration 10.0 uM
[41] = target: Beta-3 adrenergic receptor (Homo sapiens) (UniProt P13945); conditions: Compound concentration 10.0 uM
[42] = target: Muscarinic acetylcholine receptor M5 (Homo sapiens) (UniProt P08912); conditions: Compound concentration 10.0 uM
[43] = target: Muscarinic acetylcholine receptor M3 (Homo sapiens) (UniProt P20309); conditions: Compound concentration 10.0 uM
D(4) dopamine receptor = D(4) dopamine receptor (Homo sapiens, UniProt P21917); assay: GPCRScan assay: inhibition of D4; design: radioligand conc. used [nm] 0.6 – 1.7, parental cells Stable HEK
[44] = target: Oxidized purine nucleoside triphosphate hydrolase (Homo sapiens, UniProt P36639); assay: PPiLight Biochemical Assay
[45] = target: Muscarinic acetylcholine receptor M4 (Homo sapiens) (UniProt P08173); conditions: Compound concentration 10.0 uM

Sequence of Sigma non-opioid intracellular receptor 1 (Homo sapiens) (Q99720 whole entry): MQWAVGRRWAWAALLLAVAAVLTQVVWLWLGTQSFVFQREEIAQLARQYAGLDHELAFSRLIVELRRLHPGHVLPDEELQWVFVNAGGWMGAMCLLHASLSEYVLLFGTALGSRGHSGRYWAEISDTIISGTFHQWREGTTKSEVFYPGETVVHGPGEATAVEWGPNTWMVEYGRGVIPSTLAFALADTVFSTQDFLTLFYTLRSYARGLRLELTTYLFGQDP
Sequence of Muscarinic acetylcholine receptor M5 (Homo sapiens) (P08912 whole entry): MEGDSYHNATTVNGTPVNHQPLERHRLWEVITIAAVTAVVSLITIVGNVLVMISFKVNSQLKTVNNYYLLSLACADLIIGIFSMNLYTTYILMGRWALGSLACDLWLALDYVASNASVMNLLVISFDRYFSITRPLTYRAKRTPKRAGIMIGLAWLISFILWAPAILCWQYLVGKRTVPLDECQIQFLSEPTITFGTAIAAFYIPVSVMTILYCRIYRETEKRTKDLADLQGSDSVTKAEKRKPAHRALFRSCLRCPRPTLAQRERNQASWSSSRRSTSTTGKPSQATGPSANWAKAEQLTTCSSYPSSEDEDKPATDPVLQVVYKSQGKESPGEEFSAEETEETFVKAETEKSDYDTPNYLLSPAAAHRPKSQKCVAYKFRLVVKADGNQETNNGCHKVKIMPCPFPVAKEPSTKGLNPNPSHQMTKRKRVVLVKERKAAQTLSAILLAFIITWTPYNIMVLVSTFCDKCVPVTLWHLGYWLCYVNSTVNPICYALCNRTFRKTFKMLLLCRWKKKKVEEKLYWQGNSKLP
Sequence of 5-hydroxytryptamine receptor 1B (Homo sapiens) (P28222 whole entry): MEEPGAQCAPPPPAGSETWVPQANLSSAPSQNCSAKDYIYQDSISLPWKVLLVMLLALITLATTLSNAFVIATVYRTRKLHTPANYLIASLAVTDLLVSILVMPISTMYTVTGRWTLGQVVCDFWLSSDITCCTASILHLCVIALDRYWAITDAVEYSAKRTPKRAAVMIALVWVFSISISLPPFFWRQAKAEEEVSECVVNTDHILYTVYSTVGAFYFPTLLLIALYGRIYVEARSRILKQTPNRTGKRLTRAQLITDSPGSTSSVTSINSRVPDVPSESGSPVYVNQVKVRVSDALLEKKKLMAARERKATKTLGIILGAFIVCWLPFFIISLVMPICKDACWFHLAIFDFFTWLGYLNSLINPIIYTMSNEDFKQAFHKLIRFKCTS
Sequence of 5-hydroxytryptamine receptor 6 (Homo sapiens) (P50406 whole entry): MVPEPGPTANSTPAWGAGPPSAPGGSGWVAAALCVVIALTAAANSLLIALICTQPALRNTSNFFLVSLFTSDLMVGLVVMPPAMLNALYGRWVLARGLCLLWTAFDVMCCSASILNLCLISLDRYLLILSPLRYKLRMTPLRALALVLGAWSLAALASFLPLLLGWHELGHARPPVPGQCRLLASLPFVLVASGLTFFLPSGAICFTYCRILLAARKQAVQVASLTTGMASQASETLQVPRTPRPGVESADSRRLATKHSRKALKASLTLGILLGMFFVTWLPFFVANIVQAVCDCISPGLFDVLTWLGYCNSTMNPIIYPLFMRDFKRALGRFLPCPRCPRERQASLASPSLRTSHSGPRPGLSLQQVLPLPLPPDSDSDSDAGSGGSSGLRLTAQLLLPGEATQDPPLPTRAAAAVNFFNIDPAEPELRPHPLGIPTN
Sequence of Muscarinic acetylcholine receptor M2 (Homo sapiens) (P08172 whole entry): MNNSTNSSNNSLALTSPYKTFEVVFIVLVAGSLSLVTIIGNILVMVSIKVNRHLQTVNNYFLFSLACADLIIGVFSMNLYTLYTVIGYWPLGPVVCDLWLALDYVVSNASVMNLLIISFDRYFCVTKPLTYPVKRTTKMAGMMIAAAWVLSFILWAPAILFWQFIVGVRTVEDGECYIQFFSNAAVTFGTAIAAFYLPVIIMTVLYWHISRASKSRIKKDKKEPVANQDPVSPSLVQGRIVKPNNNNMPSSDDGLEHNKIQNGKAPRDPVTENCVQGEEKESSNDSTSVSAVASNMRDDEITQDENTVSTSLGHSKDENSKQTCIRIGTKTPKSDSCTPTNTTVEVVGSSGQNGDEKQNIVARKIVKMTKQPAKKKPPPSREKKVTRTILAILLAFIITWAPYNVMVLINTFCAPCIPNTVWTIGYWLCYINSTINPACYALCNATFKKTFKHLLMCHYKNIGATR
Sequence of 5-hydroxytryptamine receptor 2C (Homo sapiens) (P28335 whole entry): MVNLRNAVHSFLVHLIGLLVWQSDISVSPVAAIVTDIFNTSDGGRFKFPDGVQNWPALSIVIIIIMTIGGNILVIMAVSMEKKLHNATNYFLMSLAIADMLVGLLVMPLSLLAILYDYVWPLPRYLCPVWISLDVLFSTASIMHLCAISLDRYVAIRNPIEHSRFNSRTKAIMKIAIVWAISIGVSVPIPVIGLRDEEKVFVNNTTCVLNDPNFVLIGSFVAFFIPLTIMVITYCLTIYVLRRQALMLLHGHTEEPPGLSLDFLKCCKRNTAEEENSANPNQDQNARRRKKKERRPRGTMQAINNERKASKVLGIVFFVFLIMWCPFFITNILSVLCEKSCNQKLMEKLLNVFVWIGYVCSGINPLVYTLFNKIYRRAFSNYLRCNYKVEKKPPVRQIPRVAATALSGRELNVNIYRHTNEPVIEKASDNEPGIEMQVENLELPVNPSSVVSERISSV
Sequence of D(2) dopamine receptor (Homo sapiens) (P14416 whole entry): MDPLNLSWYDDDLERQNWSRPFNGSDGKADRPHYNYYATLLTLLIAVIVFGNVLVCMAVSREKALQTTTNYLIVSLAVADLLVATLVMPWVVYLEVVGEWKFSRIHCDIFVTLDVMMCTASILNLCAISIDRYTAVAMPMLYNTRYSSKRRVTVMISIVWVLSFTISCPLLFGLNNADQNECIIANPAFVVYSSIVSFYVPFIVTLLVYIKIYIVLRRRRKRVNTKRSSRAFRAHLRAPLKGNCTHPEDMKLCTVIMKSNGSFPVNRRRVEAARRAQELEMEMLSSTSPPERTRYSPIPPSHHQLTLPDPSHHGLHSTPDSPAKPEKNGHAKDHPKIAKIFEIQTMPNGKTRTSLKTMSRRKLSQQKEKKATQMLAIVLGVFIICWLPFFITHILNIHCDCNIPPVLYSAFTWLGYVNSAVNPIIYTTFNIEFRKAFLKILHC
Sequence of Alpha-2B adrenergic receptor (Homo sapiens) (P18089 whole entry): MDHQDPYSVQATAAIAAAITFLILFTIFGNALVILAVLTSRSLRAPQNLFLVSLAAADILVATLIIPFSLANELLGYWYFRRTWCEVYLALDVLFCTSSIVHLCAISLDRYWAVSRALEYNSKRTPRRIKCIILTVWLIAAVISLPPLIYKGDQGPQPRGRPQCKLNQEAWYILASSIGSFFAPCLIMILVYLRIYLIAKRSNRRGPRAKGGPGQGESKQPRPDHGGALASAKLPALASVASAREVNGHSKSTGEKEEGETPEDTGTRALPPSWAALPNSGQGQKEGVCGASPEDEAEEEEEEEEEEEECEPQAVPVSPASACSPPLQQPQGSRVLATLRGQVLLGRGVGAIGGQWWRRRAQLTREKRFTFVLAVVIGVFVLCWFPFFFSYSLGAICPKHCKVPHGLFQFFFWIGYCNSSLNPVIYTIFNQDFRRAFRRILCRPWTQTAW
Sequence of Alpha-2A adrenergic receptor (Homo sapiens) (P08913 whole entry): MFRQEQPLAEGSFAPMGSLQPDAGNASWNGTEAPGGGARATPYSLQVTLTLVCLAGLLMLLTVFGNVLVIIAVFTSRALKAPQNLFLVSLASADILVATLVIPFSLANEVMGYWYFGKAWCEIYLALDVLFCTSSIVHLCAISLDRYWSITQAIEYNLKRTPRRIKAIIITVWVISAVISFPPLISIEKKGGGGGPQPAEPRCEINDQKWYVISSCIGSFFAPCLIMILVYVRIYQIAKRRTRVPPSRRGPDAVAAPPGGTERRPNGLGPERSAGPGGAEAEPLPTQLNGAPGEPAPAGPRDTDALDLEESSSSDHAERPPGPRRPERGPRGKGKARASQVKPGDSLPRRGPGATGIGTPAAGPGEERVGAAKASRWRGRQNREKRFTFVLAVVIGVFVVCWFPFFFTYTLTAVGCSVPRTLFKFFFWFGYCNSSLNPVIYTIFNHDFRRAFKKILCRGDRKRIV
Sequence of Mu-type opioid receptor (Homo sapiens) (P35372 whole entry): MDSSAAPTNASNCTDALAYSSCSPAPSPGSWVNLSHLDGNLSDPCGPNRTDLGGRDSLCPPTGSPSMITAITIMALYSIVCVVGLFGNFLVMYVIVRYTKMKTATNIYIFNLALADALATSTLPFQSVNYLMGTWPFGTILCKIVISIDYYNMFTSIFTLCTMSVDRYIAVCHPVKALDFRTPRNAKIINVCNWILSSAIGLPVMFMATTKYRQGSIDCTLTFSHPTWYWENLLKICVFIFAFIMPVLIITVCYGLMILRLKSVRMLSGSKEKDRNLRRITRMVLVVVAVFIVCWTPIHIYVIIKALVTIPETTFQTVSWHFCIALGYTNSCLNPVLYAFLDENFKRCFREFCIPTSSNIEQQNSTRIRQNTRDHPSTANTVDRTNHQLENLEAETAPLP
Sequence of D(1A) dopamine receptor (Homo sapiens) (P21728 whole entry): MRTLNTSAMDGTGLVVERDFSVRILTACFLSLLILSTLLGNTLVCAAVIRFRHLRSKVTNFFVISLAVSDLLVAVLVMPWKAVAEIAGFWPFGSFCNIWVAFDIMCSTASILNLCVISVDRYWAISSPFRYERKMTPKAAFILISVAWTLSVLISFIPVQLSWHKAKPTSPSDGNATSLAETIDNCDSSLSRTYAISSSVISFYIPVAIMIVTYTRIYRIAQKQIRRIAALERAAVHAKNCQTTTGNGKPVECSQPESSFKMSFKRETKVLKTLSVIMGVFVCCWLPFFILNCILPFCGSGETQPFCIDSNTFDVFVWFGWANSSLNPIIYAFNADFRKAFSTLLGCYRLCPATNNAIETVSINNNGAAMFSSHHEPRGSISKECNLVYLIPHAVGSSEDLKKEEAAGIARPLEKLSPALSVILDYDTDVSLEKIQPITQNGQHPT
Sequence of Sigma intracellular receptor 2 (Homo sapiens) (Q5BJF2 whole entry): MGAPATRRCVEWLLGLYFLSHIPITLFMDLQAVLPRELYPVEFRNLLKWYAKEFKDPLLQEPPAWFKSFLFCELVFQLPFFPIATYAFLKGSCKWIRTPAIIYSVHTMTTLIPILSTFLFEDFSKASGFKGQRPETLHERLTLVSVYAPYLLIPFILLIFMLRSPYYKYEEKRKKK

inhibition [1]: 8.58%
inhibition [2]: -6.09%
inhibition [3]: 10.6%
inhibition [4]: -1.37%
inhibition [5]: 47.1%
inhibition [6]: -1.26%
inhibition [7]: -1.66%
inhibition [8]: 34.3%
inhibition [9]: 1.31%
inhibition [10]: 1.88%
inhibition [11]: -0.04%
inhibition [12]: 34.6%
inhibition [13]: 4.94%
inhibition [14]: 40.5%
inhibition [15]: 1.92%
inhibition [16]: -3.84%
inhibition [17]: -2.4%
inhibition [18]: -8.05%
inhibition [19]: 0.0286%
inhibition [20]: 21.7%
inhibition [21]: -4.45%
inhibition (Rattus norvegicus): 30.1%
Ki [22]: 1530 nM
inhibition [23]: 24.8%
inhibition [24]: 24.3%
inhibition [25]: 57.3%
inhibition [26]: 3.16%
inhibition [27]: 28.2%
Ki [28]: 10000 nM
inhibition [29]: -4.02%
inhibition [30]: 18.1%
inhibition [31]: 69.8%
inhibition [32]: 25.5%
inhibition [33]: 13.1%
inhibition [34]: -7.55%
inhibition [35]: -7.82%
inhibition [36]: -8.52%
inhibition [37]: 34.4%
inhibition [38]: 40.2%
inhibition [39]: -7.89%
inhibition [40]: 12.3%
inhibition [41]: 14.3%
inhibition [42]: -4.95%
Structure (SMILES): CCNC(=O)c1cc2c(N3CCOC[C@@H]3C)ccnc2[nH]1

inhibition [1]: -8.1%
inhibition [2]: 27.3%
inhibition [3]: 9.36%
inhibition [4]: 18.6%
inhibition [5]: 2.79%
inhibition [6]: 7.19%
inhibition [7]: -8.46%
inhibition [43]: 38%
Ki (D(4) dopamine receptor; read-out: Ki): 736 nM
Ki (D(4) dopamine receptor; read-out: pKi (converted)): 708 nM
inhibition [9]: -3.91%
inhibition [10]: 3.94%
inhibition [11]: 2.73%
inhibition [12]: 30.4%
inhibition [13]: 26%
inhibition [14]: -6.16%
inhibition [15]: 14.2%
inhibition [16]: 77.6%
inhibition [17]: 5.71%
inhibition [19]: 5.51%
inhibition [20]: 11.9%
inhibition [21]: -1.21%
inhibition (Rattus norvegicus): 17.2%
IC50 [44]: > 20000 nM (not active)
Ki [22]: 224 nM
pKi [22]: 6.72
inhibition [23]: 0.08%
inhibition [24]: 24.5%
inhibition [25]: 84.2%
inhibition [26]: -1.28%
inhibition [27]: -1.39%
inhibition [29]: 46.2%
inhibition [30]: 16.9%
inhibition [31]: -1.88%
inhibition [33]: 14.6%
inhibition [34]: -0.31%
inhibition [35]: 12.1%
inhibition [36]: 31.9%
inhibition [37]: -2.44%
inhibition [38]: 5.35%
inhibition [39]: -1.68%
inhibition [45]: 5.75%
inhibition [40]: -1.89%
inhibition [41]: -9.19%
inhibition [42]: -0.9%
Structure (SMILES): CCNC(=O)c1cc2c(N3CCOC[C@@H]3C)ccnc2n1C
